Experimental data taken from patent US20210275680A1, “USE OF THE TAS1R3 PROTEIN AS A MARKER FOR THERAPEUTIC, DIAGNOSTIC, AND/OR PROGNOSTIC PURPOSES FOR TUMORS THAT EXPRESS SAID PROTEIN” (FUNDACIÓN INSITITUTO DE INVESTIGACIÓN SANITARIA DE SANTIAGO …, priority 2018, published 2021).

Key:
[1] = Immunization of mice with TAS1R3 peptide, titration of bleeds; type: in vivo; conditions: 4 plus 2 doses of 50 μg of peptide
Method: The resulting protein was purified to homogeneity with a final purity of 90-95%, 2 mg conjugated to KLH, 3 mg conjugated to BSA. The design of the genomic construct was carried out based on the literature (Maitrepierre et al., 2012). Likewise, a study of storage buffer formulation was carried out to preserve the integrity of the protein (restricting the use of detergents and polysaccharides in the final formula). The batch obtained was aliquoted in labeled sterile vials and stored at −80° C. until use. After several immunizations of the mice with 4 plus 2 doses of 50 μg of peptide, the bleeds were titrated in order to evaluate the increase of the response against the peptide.

[2] = system: SW620 cells; assay: Cell proliferation of SW620 cells with free ligand in the medium (cell counting); type: cell-based, human
Method: FIG. 8. RT-PCR of the receptor when the cells are kept in contact with lactisole for 9 days, comparing it with the controls (SW620 cultured in medium with low glucose concentration) (A). Cell proliferation of SW620 cells cultured in medium with low glucose concentration, and increasing concentrations of lactisole (from 0.44 mg/mL to 7 mg/mL) for 72 h (B). Colony formation of control SW620 cells or in contact with the lactisole ligand, at a concentration of 3.5 mg/mL, after 15 days of culture (C). Beta-galactosidase staining, indicative of cellular senescence, in SW620 cells treated with lactisole (3.5 mg/mL for 72 hours, arrows show cells where staining can be seen) (D). Western blot showing the expression of different proteins involved in tumor progression in SW620 cells when they are exposed to different glucose concentrations (high and low) and lactisole (3.5 mg/ml) for 9 days (E). […] Cell proliferation studies were carried out in SW620 cells, FIG. 7A, cultured in medium with high and low glucose concentration. […] Photos were taken using the microscope (Leica DMIL® microscope) and subsequently they were trypsinized, and the number of cells was counted to make the comparison between these and the starting ones in order to observe the effect of the ligand on the cells. […]

[3] = system: p-ERK, p-AKT, IGF-IR; assay: Western blot of proteins involved in tumor progression in SW620 cells; type: cell-based, human; conditions: SW620, lactisole 3.5 mg/ml or high glucose (HG), 9 days (FIG. 8E)
Method: FIG. 8. RT-PCR of the receptor when the cells are kept in contact with lactisole for 9 days, comparing it with the controls (SW620 cultured in medium with low glucose concentration) (A). Cell proliferation of SW620 cells cultured in medium with low glucose concentration, and increasing concentrations of lactisole (from 0.44 mg/mL to 7 mg/mL) for 72 h (B). Colony formation of control SW620 cells or in contact with the lactisole ligand, at a concentration of 3.5 mg/mL, after 15 days of culture (C). Beta-galactosidase staining, indicative of cellular senescence, in SW620 cells treated with lactisole (3.5 mg/mL for 72 hours, arrows show cells where staining can be seen) (D). […]
For the qualitative study of proteins, Western Blot was performed from proteins isolated from the SW620 cell line, and the results are shown in FIG. 6 (B). […] The total protein of each sample was quantified by the […] (conversion method of bicathionic to monocationic copper in alkaline conditions influenced by specific amino acids such as cysteine, cystine, tryptophan, tyrosine and also by the peptide chain; the amount of bicathionic copper will depend of the amount of these components and will be determined spectrophotopically) using the commercial kit DC-Assay (BIO-RAD®) and establishing a calibration line with bovine serum albumin (BSA, Sigma-Aldrich). […]

[4] = system: SW620 cells; assay: Colony formation of SW620 cells with free ligand; type: cell-based, human; conditions: SW620, low glucose medium, 3.5 mg/mL ligand, 15 days, versus control SW620 (FIG. 8C)
Method: Cell proliferation studies were carried out in SW620 cells, FIG. 7A, cultured in medium with high and low glucose concentration. The cells were trypsinized and plated the same number of cells in order to count them at times 0, 24, 72, 96 and 168 hours, using for this the Neubauer chamber, after trypsinization thereof. In an analogous manner, cell proliferation studies were carried out in medium with the presence of free ligand, FIG. 8, which was added to the culture medium at different concentrations. Photos were taken using the microscope (Leica DMIL® microscope) and subsequently they were trypsinized, and the number of cells was counted to make the comparison between these and the starting ones in order to observe the effect of the ligand on the cells. […] However, when studies of colony formation were carried out, starting from an amount of 200 cells per well and waiting for 15 days, it was observed that cells cultured in medium with low concentration of glucose, and that express higher levels of receptor, formed more colonies than those grown in high glucose medium (FIG. 7B). For colony formation studies, 12 well plates were used, plating in different amounts of cells (200, 400,600 and 800 cells per well), in medium with high (4500 mg/L) and low (1000 mg/L) content of glucose. […]

[5] = system: TAS1R3 receptor; assay: RT-PCR of TAS1R3 receptor in SW620 cells kept in contact with lactisole; type: cell-based, human; conditions: SW620, low glucose medium, lactisole for 9 days, versus controls (FIG. 8A)
Method: Metastatic colon cells from the lymph node (SW620, CCL-227), colorectal adenocarcinoma epithelial cells (SW480, CCL-228), lung carcinoma epithelial cells (A549, CCL-185), and metastatic lung cells from the liver (H1755, CRL-5892), pancreatic carcinoma cells (MIA PaCa-2, CRL-1420), and glioblastoma cells (U118, HTB-15 and U87MG, HTB-14) were used. The SW620, SW480, A549, U118 and U87MG lines were maintained in DMEM HG medium (Dulbecco's Modified Eagle's Medium—High glucose, Sigma-Aldrich), and the H1755 line in RPMI 1640 medium (Gibco®, LifeTecnologies), both supplemented to the 10% with fetal bovine serum (Gibco®, LifeTecnologies) and 1% with antibiotic (penicillin and streptomycin, Sigma-Aldrich). For the quantitative analysis of the expression of TAS1R3, a polymerase chain reaction was carried out with reverse transcriptase (RT-PCR), starting from RNA extracted from all cell lines in culture. […] RNA extraction was carried out using the extraction kit (GeneJET RNA Purification Kit, ThermoScientic), and the analysis was carried out in a manner similar to that described in a previous paragraph. Once the procedure was finished, the data were analyzed.

[6] = system: SW620 cells; assay: Beta-galactosidase staining for cellular senescence; type: cell-based, human; conditions: SW620, low glucose medium, 3.5 mg/mL, 72 hours (FIG. 8D)
Method: To determine whether after cell incubation with the ligand cell senescence is induced, 500,000 cells of the SW620 line were cultured in 6-well plates and medium with low glucose concentration. In several wells, ligand (3.5 mg/mL) was added. After 72 hours, the wells were washed and fixed (2% formaldehyde, 0.2% glutaraldehyde in PBS) for 15 minutes at room temperature. The solution was eliminated giving three washes with 1×PBS, and then the staining solution was applied, calculated for one milliliter of solution: 200 μL citric acid/phosphate buffer, pH 6.0 (dibasic sodium phosphate (Na2HPO4) 0.2 M+0.1 M citric acid), 30 μL 5 M NaCl, 50 μL potassium ferricyanide (K3[Fe(CN)6]) 100 mM, 50 μL potassium ferrocyanide (K4[Fe(CN)6]) 100 mM, 2 μL magnesium chloride (MgCl2) 1 M, 50 μL solution X-gal (20 mg/mL of 5-bromo-4-chloro-3-indolyl β D-galactopyranoside in […]) and 618 μL distilled water. It was incubated in the oven at 37° C. overnight, the wells were washed with distilled water in motion twice, to then apply PBS 1× and observe the possible senescent cells under the Vert microscope. Al, Zeiss®. Blue staining is observed, corresponding to cells in senescence.

Molecule: Acetyl-LSQQLRMKGDYVLGGC-amide (Ac-LSQQLRMKGDYVLGGC-NH2) [TAS1R3 N-terminal extracellular peptide immunogen, conjugated to KLH / BSA]
- Response against the peptide (titration of bleeds) [1]: some response against the peptide, although with very low values

Molecule: CFYDEKR [peptide derived from brazzein, brazzein peptide, ligand for TAS1R3]
- Cell proliferation ([2]; SW620, DMEM supplemented with different receptor ligands, extent depends on concentration and molecule (FIG. 8F)): interfere with proliferation

Molecule: COc1ccc(OC(C)C(=O)O)cc1 (stereo not shown) [lactisole, Lactisole]
- Activation of pathways related to tumor progression (western blot) [3]: activates pathways related to tumor progression, such as p-ERK, p-AKT or IGF-IR
- Colony formation [4]: no representative colony formed on the plate was observed
- Expression of the TAS1R3 receptor (RT-PCR) [5]: increase in the expression of the receptor
- Cell proliferation ([2]; SW620, low glucose medium, lactisole 0.44 to 7 mg/mL, 72 h, effect at higher concentrations (FIG. 8B)): interferes with cell proliferation
- Cellular senescence (beta-galactosidase staining) [6]: induction of cellular senescence
